Results published in PMC6273491, “Two New Oleanane-Type Saponins with Anti-Proliferative Activity from Camellia oleifera Abel. Seed Cake” (Molecules, 2016).

Assays:
Format in all cases: cell-based
[1] = tested on: five human tumor cell lines (BEL-7402, BGC-823, MCF-7, HL-60 and KB); test: MTT anti-proliferative assay, panel of five human tumor cell lines; conditions: 72 h treatment, range across BEL-7402, BGC-823, MCF-7, HL-60, KB, read-out: anti-proliferative activity IC50 values, range over five cell lines
Description: (§1) The isolated Compounds 1, 2 and total seed cake saponins (C. oleifera) were tested against five human tumor cell lines (human hepatocellular carcinoma cells BEL-7402, human gastric carcinoma cells BGC-823, human breast cancer cells MCF-7, human promyelocytic leukemia cells HL-60 and human oral epidermoid carcinoma cells KB) using the MTT in vitro assay. Taxol, an anticancer agent, was used as the positive control.
(§2) The procedure for the anti-proliferative activity assay was performed according to the MTT reduction method using the human tumor cell lines BEL-7402, BGC-823, MCF-7, HL-60 and KB (Nanjing KeyGEN BioTECH Co., LTD, Jiangsu, China). In brief, the human tumor cell lines in culture medium (100 μL) were placed in a cell of a 96-well plate at a concentration of 4 × 10^3 cells/mL and incubated at 37 °C in 5% CO2 for 24 h. After 24 h, an additional 100 μL of complete medium with either: no additions (negative control), 0.1% DMSO (solvent control), 10 μg/mL Taxol (positive control), or different concentrations (0.391, 0.781, 1.562, 3.125, 6.25, 12.5, 25 and 50 μM) of 1 or 2 or total saponins (0.391, 0.781, 1.562, 3.125, 6.25, 12.5, 25 and 50 μg/mL). The treated cells were incubated as above for 72 h. […] The optical density (OD) of each well was measured at 490 nm using a Tunable Microplate Reader (EL-x800, BioTek Instruments, Winooski, VT, USA). […]

[2] = tested on: human gastric carcinoma cells BGC-823; test: MTT anti-proliferative assay, BGC-823; conditions: 72 h treatment, read-out: Cell Lines IC50 BGC-823
Description: as §1, §2

[3] = tested on: human oral epidermoid carcinoma cells KB; test: MTT anti-proliferative assay, KB; conditions: 72 h treatment, read-out: Cell Lines IC50 KB
Description: as §1, §2

[4] = tested on: human hepatocellular carcinoma cells BEL-7402; test: MTT anti-proliferative assay, BEL-7402; conditions: 72 h treatment, read-out: Cell Lines IC50 BEL-7402
Description: as §1, §2

[5] = tested on: human breast cancer cells MCF-7; test: MTT anti-proliferative assay, MCF-7; conditions: MCF7, 72 h treatment, read-out: Cell Lines IC50 MCF-7
Description: as §1, §2

[6] = tested on: human promyelocytic leukemia cells HL-60; test: MTT anti-proliferative assay, HL-60; conditions: 72 h treatment, read-out: Cell Lines IC50 HL-60
Description: as §1, §2

IC50 [1] [µM] | IC50 [2] [µM] | IC50 [3] [µM] | IC50 [4] [µM] | IC50 [5] [µM] | IC50 [6] [µM] | SMILES
1.8 to 5.5 | 5.5 | 3.47 | 4.22 | 3.92 | 1.8 | CC=C(C)C(=O)OC1CC(C)(C)CC2C3=CCC4C5(C)CCC(OC6OC(C(=O)OC)C(O)C(OC7OC(CO)C(O)C(O)C7O)C6OC6OC(CO)C(O)C(O)C6O)C(C)(C=O)C5CCC4(C)C3(C)CC(O)C12CO [Compound 2, 16α-hydroxy-22α-O-angeloyl-23α-aldehyde-28-dihydroxymethylene-olean-12-ene-3β-O-[β-D-galactopyranosyl-(1→2)]-[β-D-galactopyranosyl-(1→3)]-β-D-glucopyranosiduronic acid methyl ester]
6.5 to 15.1 | 11.2 | 12.3 | 10.4 | 15.1 | 6.49 | CC=C(C)C(=O)OC1CC(C)(C)CC2C3=CCC4C5(C)CCC(OC6OC(C(=O)OC)C(O)C(OC7OC(CO)C(O)C(O)C7OC7OC(CO)C(O)C(O)C7O)C6OC6OC(CO)C(O)C(O)C6O)C(C)(C=O)C5CCC4(C)C3(C)CC(O)C12CO [Compound 1, 16α-hydroxy-22α-O-angeloyl-23α-aldehyde-28-dihydroxymethylene-olean-12-ene-3β-O-[β-D-galacto-pyranosyl-(1→2)]-[β-D-glucopyranosyl-(1→2)-β-D-galactopyranosy-(1→3)]-β-D-glucopyranosid-uronic acid methyl ester]
